From patent US20250188110A1, “SPECIFIC SMALL MOLECULE INHIBITORS THAT BLOCK KMT9 METHYLTRANSFERASE ACTIVITY AND FUNCTION” (ALBERT-LUDWIGS-UNIVERSITÄT FREIBURG, priority 2021, published 2025)
pIC50, pKd: −log10 of the molar value. Like-named read-outs stand apart in the source and are kept apart here.

Legend:
KMT9 [1] = molecular target: T1, KMT9 (Homo sapiens, UniProt Q9Y5N5); experiment: Microscale thermophoresis (MST) KMT9 binding
T1 sequence (Q9Y5N5 1-214): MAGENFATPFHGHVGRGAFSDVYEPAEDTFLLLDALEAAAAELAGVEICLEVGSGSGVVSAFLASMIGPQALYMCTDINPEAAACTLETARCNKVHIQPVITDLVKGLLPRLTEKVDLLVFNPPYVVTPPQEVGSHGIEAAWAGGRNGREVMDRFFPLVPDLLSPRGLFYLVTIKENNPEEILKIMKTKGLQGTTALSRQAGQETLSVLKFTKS
T1 sequence (Q9UI30 1-120 isoform Q9UI30-2 partner): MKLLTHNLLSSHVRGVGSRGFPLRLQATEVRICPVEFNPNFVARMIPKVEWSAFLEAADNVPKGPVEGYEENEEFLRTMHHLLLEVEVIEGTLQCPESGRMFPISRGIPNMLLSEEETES
Summary of the method: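 His-tagged KMT9 (20 nM), RED-Tris-NTA labelled, titrated with varying compound concentrations in 25 mM HEPES pH 7.5, 100 mM NaCl, 1 mM DTT, 0.05% Tween. MST at 40% MST and 100% LED power, Nano-RED excitation; Kd binned A ≤10 nM, B 10–100, C 100–1000, D >1000 nM.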

KMT9 [2] = molecular target: T1, KMT9; experiment: KMT9 thermal shift assay (SyproOrange); format: binding
Summary of the method: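 Recombinant KMT9 was incubated with compound and SyproOrange at 25° C in 50 mM BTP pH 8.5, 1 mM MgCl2, 1 mM DTT. It was then heated from 20° C to 95° C at 1° C per 15 s with fluorescence read each step. Tm came from a Boltzmann sigmoidal fit; ΔTm relative to DMSO control, binned in 5 K ranges.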

KMT9 [3] = molecular target: T1, KMT9; experiment: KMT9 methyltransferase inhibition assay, MTaseGlo luminescence (from entry 155); format: biochemical; details: 100 nM KMT9, 5 μM ETF1, 1 μM SAM
Procedure: For the compounds from entry 155 on in Table 1, the following procedure was used to determine IC50 values: The assay was carried out in white, opaque 384-well OptiPlates (PerkinElmer). For IC50 determination, a 2.5x substrate mix (final assay concentrations: 5 μM ETF1, 1 μM SAM and 1x MTaseGlo Reagent), a 2.5x KMT9 solution (final assay concentration 100 nM) and a 5x inhibitor stock 1:1 dilution series (concentration according to the desired range; dilution series was prepared in assay buffer containing 10% DMSO to obtain a final DMSO concentration of 2% in the assay) were prepared. 2 μL of 5x inhibitor stock and 4 μL of 2.5x KMT9 were pipetted, the plate was spun down at 700 rpm for 1 min using a Hettich UNIVERSAL 320 centrifuge and incubated at room temperature (around 25° C.) for 15 min. The reaction was initiated by adding 4 μL of 2.5x substrate mix, the plate was spun down as described before and incubated at 30° C. for 2 h. Afterwards, 10 μL of 2× MTaseGlo Detection solution was added, the plate was centrifuged as described above and incubated for 60 min at room temperature. Luminescence was measured using a PerkinElmer EnVision 2102 Multilabel Reader. Calculation of inhibition and data fitting was carried out as for entries 1-154. described above.
For the results of the methyltransferase inhibition assay shown as “Inhibition” in Table 1, “I” represents an IC50 less than 0.1 μM, “II” represents an IC50 equal or higher than 0.1 μM and less than 1 μM, “III” represents an IC50 equal or higher than 1 µM and less than 10 µM and “IV” represents an IC50 equal or higher than 10 µM

[4] = His-tag labelled KMT9 20 nM, Kd class, read-out: MST
[5] = ΔTm class, 500 uM compound, 2 μM KMT9, read-out: Thermal shift
[6] = IC50 class, MTaseGlo procedure (entries from 155 on), read-out: Inhibition
[7] = microscale thermophoresis, His-tag labelled KMT9 (20 nM), read-out: MST
[8] = ΔTm, 500 µM compound, 2 μM KMT9, 5X SO, read-out: Thermal shift
[9] = from entry 155: MTaseGlo assay, read-out: Inhibition
[10] = His-tag labelled KMT9 20 nM, read-out: MST (Kd)
[11] = 500 µM compound, 2 μM KMT9, read-out: Thermal shift (ΔTm)
[12] = MTaseGlo procedure (entries from 155), read-out: Inhibition (IC50)

| Compound | pKd (KMT9 [1]; [4]) | ΔTm at 500 µM (KMT9 [2]; [5]) [°C] | pIC50 (KMT9 [3]; [6]) | pKd (KMT9 [1]; [10]) | ΔTm at 500 µM (KMT9 [2]; [11]) [°C] | pIC50 (KMT9 [3]; [12]) | further results |
| --- | --- | --- | --- | --- | --- | --- | --- |
| O[C@@H]1[C@H](O)[C@@H](C2CCN(CC(F)(F)F)CC2)C[C@H]1n1cc(-c2nc(Cc3ccccc3)cs2)c2cnc(Cl)nc21 [Compound 499, (1R,2S,3R,5R)-3-(5-(4-Benzylthiazol-2-yl)-2-chloro-7H-pyrrolo[2,3-d]pyrimidin-7-yl)-5-(1-(2,2,2-trifluoroethyl)piperidin-4-yl)cyclopentane-1,2-diol] | < 6.00 | ≤ 10 | < 5.00 | – | – | – | – |
| Nc1nc(Cl)nc2c1c(-c1ccn(Cc3ccccc3)n1)cn2[C@@H]1C[C@H](C2CCNCC2)[C@@H](O)[C@H]1O [Compound 501, (1R,2S,3R,5R)-3-(4-Amino-5-(1-benzyl-1H-pyrazol-3-yl)-2-chloro-7H-pyrrolo[2,3-d]pyrimidin-7-yl)-5-(piperidin-4-yl)cyclopentane-1,2-diol] | – | – | – | – | – | – | pKd (KMT9 [1]; [7]): ≥ 8.00; ΔTm at 500 µM (KMT9 [2]; [8]): > 20 °C; pIC50 (KMT9 [3]; [9]): > 7.00 |
| CN1CCC([C@H]2C[C@@H](n3cc(-c4ccn(Cc5ccccc5)n4)c4c(N)nc(Cl)nc43)[C@H](O)[C@@H]2O)CC1 [Compound 502, (1R,2S,3R,5R)-3-(4-amino-5-(1-benzyl-1H-pyrazol-3-yl)-2-chloro-7H-pyrrolo[2,3-d]pyrimidin-7-yl)-5-(1-methylpiperidin-4-yl)cyclopentane-1,2-diol] | – | – | – | – | – | – | pKd (KMT9 [1]; [7]): ≥ 8.00; ΔTm at 500 µM (KMT9 [2]; [8]): > 20 °C; pIC50 (KMT9 [3]; [9]): 6.00 to 7.00 |
| Nc1ncnc2c1c(-c1nc(Cc3ccccc3)cs1)cn2[C@@H]1C[C@H](C2=CCCNC2)[C@@H](O)[C@H]1O [Compound 503, (1R,2S,3R,5R)-3-(4-amino-5-(4-benzylthiazol-2-yl)-7H-pyrrolo[2,3-d]pyrimidin-7-yl)-5-(1,2,5,6-tetrahydropyridin-3-yl)cyclopentane-1,2-diol] | – | – | – | – | – | – | pKd (KMT9 [1]; [7]): 6.00 to 7.00; ΔTm at 500 µM (KMT9 [2]; [8]): 15 to 20 °C; pIC50 (KMT9 [3]; [9]): 5.00 to 6.00 |
| CCN1CCC([C@H]2C[C@@H](n3cc(-c4nc(Cc5ccccc5)cs4)c4c(N)nc(Cl)nc43)[C@H](O)[C@@H]2O)CC1 [Compound 504, (1R,2S,3R,5R)-3-[4-amino-5-(4-benzyl-1,3-thiazol-2-yl)-2-chloropyrrolo[2,3-d]pyrimidin-7-yl]-5-(1-ethylpiperidin-4-yl)cyclopentane-1,2-diol] | ≥ 8.00 | > 20 | 6.00 to 7.00 | – | – | – | – |
| CN1CCC([C@H]2C[C@@H](n3cc(-c4nc(Cc5ccccc5)cs4)c4c(N)nc(Cl)nc43)[C@H](O)[C@@H]2O)CC1 [Compound 505, (1R,2S,3R,5R)-3-(4-amino-5-(4-benzylthiazol-2-yl)-2-chloro-7H-pyrrolo[2,3-d]pyrimidin-7-yl)-5-(1-methylpiperidin-4-yl)cyclopentane-1,2-diol] | ≥ 8.00 | > 20 | 6.00 to 7.00 | – | – | – | – |
| CC(C)N1CCC([C@H]2C[C@@H](n3cc(-c4nc(Cc5ccccc5)cs4)c4c(N)nc(Cl)nc43)[C@H](O)[C@@H]2O)CC1 [Compound 506, (1R,2S,3R,5R)-3-[4-amino-5-(4-benzyl-1,3-thiazol-2-yl)-2-chloropyrrolo[2,3-d]pyrimidin-7-yl]-5-(1-isopropylpiperidin-4-yl)cyclopentane-1,2-diol] | ≥ 8.00 | > 20 | 6.00 to 7.00 | – | – | – | – |
| Nc1nc(Cl)nc2c1c(-c1nc(Cc3ccccc3)cs1)cn2[C@@H]1C[C@H](C2CCN(CC3CC3)CC2)[C@@H](O)[C@H]1O [Compound 507, (1R,2S,3R,5R)-3-[4-amino-5-(4-benzyl-1,3-thiazol-2-yl)-2-chloropyrrolo[2,3-d]pyrimidin-7-yl]-5-[1-(cyclopropylmethyl)piperidin-4-yl]cyclopentane-1,2-diol] | ≥ 8.00 | > 20 | 6.00 to 7.00 | – | – | – | – |
| Nc1nc(Cl)nc2c1c(-c1nc(Cc3ccccc3)cs1)cn2[C@@H]1C[C@H](C2CCN(CCF)CC2)[C@@H](O)[C@H]1O [Compound 508, (1R,2S,3R)-3-[4-amino-5-(4-benzyl-1,3-thiazol-2-yl)-2-chloropyrrolo[2,3-d]pyrimidin-7-yl]-5-[1-(2-fluoroethyl)piperidin-4-yl]cyclopentane-1,2-diol] | – | – | – | ≥ 8.00 | 15 to 20 | 6.00 to 7.00 | – |
| C=CCN1CCC([C@H]2C[C@@H](n3cc(-c4nc(Cc5ccccc5)cs4)c4c(N)nc(Cl)nc43)[C@H](O)[C@@H]2O)CC1 [Compound 509, (1R,2S,3R,5R)-3-[4-amino-5-(4-benzyl-1,3-thiazol-2-yl)-2-chloropyrrolo[2,3-d]pyrimidin-7-yl]-5-[1-(prop-2-en-1-yl)piperidin-4-yl]cyclopentane-1,2-diol] | – | – | – | ≥ 8.00 | 15 to 20 | 5.00 to 6.00 | – |
| CC(=O)CN1CCC([C@H]2C[C@@H](n3cc(-c4nc(Cc5ccccc5)cs4)c4c(N)nc(Cl)nc43)[C@H](O)[C@@H]2O)CC1 [Compound 510, 1-{4-[(1R,2R,3S,4R)-4-[4-amino-5-(4-benzyl-1,3-thiazol-2-yl)-2-chloropyrrolo[2,3-d]pyrimidin-7-yl]-2,3-dihydroxycyclopentyl]piperidin-1-yl}propan-2-one] | – | – | – | 7.00 to 8.00 | 15 to 20 | 6.00 to 7.00 | – |
| Nc1nc(Cl)nc2c1c(-c1nc(Cc3ccccc3)cs1)cn2[C@@H]1C[C@H](C2CCN(CC(F)F)CC2)[C@@H](O)[C@H]1O [Compound 511, (1R,2S,3R,5R)-3-[4-amino-5-(4-benzyl-1,3-thiazol-2-yl)-2-chloropyrrolo[2,3-d]pyrimidin-7-yl]-5-[1-(2,2-difluoroethyl)piperidin-4-yl]cyclopentane-1,2-diol] | – | – | – | 6.00 to 7.00 | 10 to 15 | 5.00 to 6.00 | – |
| Nc1nc(Cl)nc2c1c(-c1nccs1)cn2[C@@H]1C[C@H](C2CCN(CCc3ccncc3)CC2)[C@@H](O)[C@H]1O [Compound 514, (1R,2S,3R,5R)-3-[4-amino-2-chloro-5-(1,3-thiazol-2-yl)pyrrolo[2,3-d]pyrimidin-7-yl]-5-{1-[2-(pyridin-4-yl)ethyl]piperidin-4-yl}cyclopentane-1,2-diol] | – | – | – | ≥ 8.00 | 15 to 20 | 6.00 to 7.00 | – |
| CN1CCCC([C@H]2C[C@@H](n3cc(-c4nc(Cc5ccccc5)cs4)c4cnc(Cl)nc43)[C@H](O)[C@@H]2O)C1 (stereo partly drawn) [Compound 515, (1R,2S,3R)-3-[5-(4-benzyl-1,3-thiazol-2-yl)-2-chloropyrrolo[2,3-d]pyrimidin-7-yl]-5-(1-methylpiperidin-3-yl)cyclopentane-1,2-diol] | 6.00 to 7.00 | 15 to 20 | 5.00 to 6.00 | – | – | – | – |
| O[C@@H]1[C@H](O)[C@@H](C2CCCN(CC(F)(F)F)C2)C[C@H]1n1cc(-c2nc(Cc3ccccc3)cs2)c2cnc(Cl)nc21 (stereo partly drawn) [Compound 517, (1R,2S,3R,5R)-3-(5-(4-benzylthiazol-2-yl)-2-chloro-7H-pyrrolo[2,3-d]pyrimidin-7-yl)-5-(1-(2,2,2-trifluoroethyl)-313-piperidin-3-yl)cyclopentane-1,2-diol] | < 6.00 | ≤ 10 | < 5.00 | – | – | – | – |
| O[C@@H]1[C@H](O)[C@@H](C2CCCN(CCc3ccccc3)C2)C[C@H]1n1cc(-c2nc(Cc3ccccc3)cs2)c2cnc(Cl)nc21 (stereo partly drawn) [Compound 518, (1R,2S,3R,5R)-3-(5-(4-benzylthiazol-2-yl)-2-chloro-7H-pyrrolo[2,3-d]pyrimidin-7-yl)-5-(1-phenethylpiperidin-3-yl)cyclopentane-1,2-diol] | < 6.00 | ≤ 10 | < 5.00 | – | – | – | – |
